Reference: ChEMBL document CHEMBL1201862, “PubChem BioAssay data set” (2004)
The source made the active and inactive calls.

Experiments:
[1] = RKO cell viability reduction, dose response, CellTiter-Glo luminescence (AID 1117322); assay type: functional
[2] = cytotoxicity toward Colo320 cells – cell-based, CellTiter-Glo luminescence, IC50, dose response (AID 1117334); assay type: functional; conditions: COLO 320
[3] = Concentration-dependent survival of SW480 colon cancer line, luminescence detection with CellTiter-Glo, half-maximal inhibitory concentration (AID 1117338); assay type: functional
[4] = cytotoxicity toward HT-29 cells – cell-based, CellTiter-Glo luminescence, IC50, dose response (AID 1117330); assay type: functional
[5] = CellTiter-Glo luminescent dose response of DLD-1 viability loss (AID 1117352); assay type: functional
[6] = HCT116 cell viability decrease, GSK3B pretreatment – CellTiter-Glo, IC50, dose response (AID 1117339); assay type: functional; conditions: HCT-116
[7] = SNU-C1 cell viability reduction, dose response, CellTiter-Glo luminescence (AID 1117323); assay type: functional, cell-based
[8] = cytotoxicity toward HCT116 cells – cell-based, CellTiter-Glo luminescence, IC50, dose response (AID 1117332); assay type: functional; conditions: HCT-116
Kallikrein-7 = Kallikrein-7 (Homo sapiens, UniProt P49862); experiment: Fluorescence Intensity-based biochemical primary high throughput dose response assay to identify activators of kallikrein-7 (K7) zymogen.
Cytochrome P450 2D6 = Cytochrome P450 2D6 (Homo sapiens, UniProt P10635);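 also: CYP2D6 member of a cytochrome P450 panel assay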
[9] = inhibitors of intracellular T. cruzi replication, confirmation, NIH3T3 host cells, beta-gal luminescence (AID 2044); assay type: functional, cell-based;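 also: intracellular parasites grown in NIH/3T3 mouse fibroblasts as host cells; luminescent beta-galactosidase reporter signal from transgenic T. cruzi replicating inside host cells; inhibitors lower the luminescence signal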
cells [10] = experiment: cells
Cytochrome P450 3A4 = Cytochrome P450 3A4 (Homo sapiens, UniProt P08684);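 also: CYP3A4 tested as one member of a cytochrome P450 panel screen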
[11] = cytotoxicity toward NIH3T3 fibroblasts, dose response, counter-screen, cell-based, ATP luminescence, mouse fibroblasts (AID 2010); assay type: functional;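 also: cells exposed to compound for about 90 hours before reading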
cells [12] = assay type: functional, cell-based
cells [13] = assay type: functional, cell-based; remark: listed apart in the source
Protein Tat = molecular target: T1, Protein Tat (Human immunodeficiency virus type 1 group M subtype B (isolate HXB2)(HIV-1), UniProt P04608); assay type: functional;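 also: tat binding to TAR RNA read out by fluorescence polarization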
T1 sequence (P04608 whole entry): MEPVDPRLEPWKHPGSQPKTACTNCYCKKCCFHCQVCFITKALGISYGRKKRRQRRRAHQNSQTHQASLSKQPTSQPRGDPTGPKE

[14] = THP-1 cell cytotoxicity, dose response, cytotoxicity control for Vif-APOBEC3G degradation inhibitor project, THP-1 cells (AID 1117359); assay type: functional; conditions: Human immunodeficiency virus 1, THP-1
Escherichia coli = experiment: microbe, parasite or virus in culture
Large T antigen = Large T antigen (Simian virus 40, UniProt P03070); assay type: functional, Betapolyomavirus macacae;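 also: Confirmatory-stage PubChem screen for compounds that inhibit SV40 T antigen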
[15] = P. falciparum ATP4 D1247Y mutant growth inhibitors, dose response, NITD609-resistant line, SYBR Green, dry powder (AID 1159571); assay type: functional, cell-based;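 also: parasites synchronized at ring stage by sorbitol before testing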
[16] = P. falciparum Dd2 growth inhibitors, dose response, SYBR Green, dry powder samples (AID 1159566); assay type: functional, cell-based;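 also: potency for growth inhibition with lower SYBR green DNA signal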
[17] = HepG2 cell cytotoxicity, dose response, cytotoxicity control, plate reader, dry powder samples (AID 1159569); assay type: functional, cell-based;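 also: inhibitor potency with signal falling toward the positive control level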
[18] = P. falciparum Dd2 growth inhibitors, dose response, SYBR Green, cherry-picked samples (AID 1159567); assay type: functional, cell-based
[19] = P. falciparum 3D7-ScDHODH growth inhibitors, dose response, SYBR Green, dry powder samples (AID 1159570); assay type: functional, cell-based;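 also: parasite growth measured after 72 hours of compound exposure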
Major prion protein = Major prion protein (Homo sapiens, UniProt P04156); assay type: functional, cell-based
cells [20] = experiment: cells; remark: listed apart in the source
[21] = molecular target: T2, Long-chain-fatty-acid--AMP ligase FadD28 (Mycobacterium tuberculosis, UniProt P9WQ59); experiment: Fluorescence polarization aasay to screen for inhibitors that compete for the binding of FadD28 to a bisubstrate Measured in Biochemical System Using Plate Reader - 2147-01_Inhibitor_Dose_CherryPick_Activity.; assay type: functional, Mycobacterium tuberculosis H37Rv
T2 sequence (P9WQ59 whole entry): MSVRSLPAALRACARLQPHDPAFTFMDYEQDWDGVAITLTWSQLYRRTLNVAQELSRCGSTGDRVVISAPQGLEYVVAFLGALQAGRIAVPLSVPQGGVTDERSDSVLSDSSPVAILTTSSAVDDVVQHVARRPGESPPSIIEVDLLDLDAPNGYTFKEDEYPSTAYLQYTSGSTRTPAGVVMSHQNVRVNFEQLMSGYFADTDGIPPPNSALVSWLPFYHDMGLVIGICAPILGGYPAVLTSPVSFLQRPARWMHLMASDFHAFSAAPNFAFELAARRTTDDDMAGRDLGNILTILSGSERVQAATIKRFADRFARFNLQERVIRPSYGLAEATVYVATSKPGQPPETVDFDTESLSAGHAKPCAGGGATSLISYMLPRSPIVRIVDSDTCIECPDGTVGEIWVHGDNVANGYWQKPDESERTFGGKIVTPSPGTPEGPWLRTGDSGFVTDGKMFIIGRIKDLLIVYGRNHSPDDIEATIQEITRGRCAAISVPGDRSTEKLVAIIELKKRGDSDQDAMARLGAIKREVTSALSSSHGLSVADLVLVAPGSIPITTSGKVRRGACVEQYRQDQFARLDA

Q: Which results are given for `COCC(C)N(C(=O)CCl)c1c(C)csc1C` (stereo not drawn)?
A: IC50 [1]: > 20 µM (inactive); IC50 [2]: > 20 µM (inactive); IC50 [3]: > 20 µM (inactive); IC50 [4]: > 20 µM (inactive); IC50 [5]: > 20 µM (inactive); IC50 [6]: > 20 µM (inactive); IC50 [7]: > 20 µM (inactive); IC50 [8]: > 20 µM (inactive)

Q: With `Cc1oc2c(c(C)cc3oc(=O)c(CC(=O)N[C@@H](CCCNC(N)=O)C(=O)O)c(C)c32)c1C` as the compound, how does the EC50 (Kallikrein-7) read?
A: Its EC50 is 69.3 µM (inactive).

Q: For `Cc1ccc(CCN2CC(C(=O)NCCCN(C)Cc3ccccc3)CC2=O)cc1` (stereo not drawn), which AC50 (Cytochrome P450 2D6) is on record?
A: Its AC50 is 14.1 µM (inconclusive).

Q: And the EC50 [9]?
A: Its EC50 is < 0.1 µM (active).

Q: And the EC50 (cells [10])?
A: The EC50 was 0.033 µM (active).

Q: What about the AC50 (Cytochrome P450 3A4) of the same compound?
A: The AC50 was 31.6 µM (inconclusive).

Q: What about the EC50 [11] of the same compound?
A: The EC50 was 15.8 µM (active).

Q: With `c1ccc(N/N=C(\Cc2ncc[nH]2)c2ccccc2)cc1` as the compound, how does the EC50 (cells [12]) read?
A: Its EC50 is > 29.9 µM (inactive).

Q: What about the IC50 (cells [13]) of the same compound?
A: Its IC50 is > 29.9 µM (inactive).

Q: What does the source list for `Cc1c(NC(=O)CN2CCN(c3ccc(O)cc3)CC2)c(=O)n(-c2ccccc2)n1C`?
A: IC50 (Protein Tat): > 100 µM (active); CC50 [14]: > 40 µM (active); AC50 (Escherichia coli): 38.1 µM (active); IC50 (Large T antigen): 13.7 µM (active)

Q: With `COc1ccc(NC(=O)c2ccc(S(=O)(=O)N3CC(C)CC(C)C3)cc2)cc1S(N)(=O)=O` (stereo not drawn) as the compound, how does the EC50 (Kallikrein-7) read?
A: The EC50 was 14.7 µM (inactive).

Q: Which AC50 [15] does the source give for `CN(C)C(=O)c1cccc(-c2cccc(-c3nc(C(=O)NC4CCCCC4)cc4c3[C@@H](CCO)N([S@+]([O-])C(C)(C)C)C4)c2)c1` here?
A: Its AC50 is 0.484 µM (active).

Q: And the AC50 [16]?
A: The AC50 was 0.232 µM (active).

Q: And the AC50 [17]?
A: The AC50 was 31.4 µM (active).

Q: What about the AC50 [18] of the same compound?
A: Its AC50 is 1.62 µM (active).

Q: And the AC50 [19]?
A: The AC50 was 0.806 µM (active).

Q: Which AC50 [15] does the source give for `O=C(Nc1cccc(F)c1)N1CCCCN2[C@@H](CO)[C@H](c3ccc(C#Cc4cccnc4)cc3)[C@@H]2C1` here?
A: Its AC50 is 0.425 µM (active).

Q: What about the AC50 [16] of the same compound?
A: The AC50 was 0.368 µM (active).

Q: And the AC50 [17]?
A: Its AC50 is 28.4 µM (active).

Q: And the AC50 [18]?
A: The AC50 was 0.606 µM (active).

Q: What about the AC50 [19] of the same compound?
A: The AC50 was 0.247 µM (active).

Q: Which IC50 (Major prion protein) does the source give for `COc1ccc(OC)c(C2NC(=O)N(C)C(C)=C2C(=O)OCc2ccccc2)c1` (stereo not drawn) here?
A: Its IC50 is 6.04 µM (active).

Q: And the IC50 (cells [20])?
A: The IC50 was > 138 µM (inactive).

Q: For `O=C(COC(=O)c1cccc(NS(=O)(=O)c2ccc(F)c(F)c2)c1)NC(=O)NC1CCCCC1`, which AC50 [21] is on record?
A: The AC50 was 19.9 µM (active).

Q: What does the source list for `CCCCCCCCCCCCCCCCC(C(=O)O)C(O)(CC(=O)O)C(=O)O` (stereo not drawn)?
A: IC50 [1]: 3.48 µM (active); IC50 [2]: 1.36 µM (active); IC50 [3]: 1.2 µM (active); IC50 [4]: 4.1 µM (active); IC50 [5]: 4.28 µM (active); IC50 [6]: 4.34 µM (active); IC50 [7]: 1.36 µM (active); IC50 [8]: 8.68 µM (inactive)

Q: For `CCc1c(O)n(-c2ccccc2)c(SCC(=O)Nc2nc3ccccc3s2)nc1=O`, which AC50 [21] is on record?
A: The AC50 was > 100 µM (inactive).
